The text below walks through data of patent US8404708B2, “Dual NK1/NK3 receptor antagonists” (Hoffmann-La Roche Inc., priority 2004, dated 2013).

For one test, the target named is human NK1 receptor (Homo sapiens, UniProt P25103). Briefly: NK1 receptor binding, [3H]substance P displacement, CHO cell membranes.
For test [1], the target named is T1, Recombinant human NK3 (hNK3) receptor (Homo sapiens, UniProt P29371).
T1 construct: expressed in transfected cells
T1 sequence (P29371 1-465): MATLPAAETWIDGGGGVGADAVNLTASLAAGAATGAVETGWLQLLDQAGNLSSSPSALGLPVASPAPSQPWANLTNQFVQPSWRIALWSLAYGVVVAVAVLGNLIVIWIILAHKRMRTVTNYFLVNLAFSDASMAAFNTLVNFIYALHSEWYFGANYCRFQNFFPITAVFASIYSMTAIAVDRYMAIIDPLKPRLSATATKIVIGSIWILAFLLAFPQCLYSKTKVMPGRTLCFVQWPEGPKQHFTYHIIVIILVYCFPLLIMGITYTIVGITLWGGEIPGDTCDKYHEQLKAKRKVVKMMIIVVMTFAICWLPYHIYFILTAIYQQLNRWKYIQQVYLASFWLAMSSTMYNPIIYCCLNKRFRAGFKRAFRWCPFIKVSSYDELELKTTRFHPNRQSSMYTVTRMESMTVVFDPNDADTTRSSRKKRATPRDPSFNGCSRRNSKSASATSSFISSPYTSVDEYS
Briefly: NK3 receptor binding, [3H]SR142801 displacement, membrane preparations. A digest of the protocol:
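hNK3 membranes (~2.5 μg/well) incubated 90 min at room temperature in 50 mM Tris-HCl pH 7.4 with 0.1% BSA, 4 mM MnCl2, 1 μM phosphoramidon. Nonspecific binding defined with 10 μM SB222200; bound [3H]SR142801 separated by filtration on PEI-soaked GF/C filters and counted by scintillation.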

Setting [2] is: first value of the cell pKi NK1/NK3, human NK1 receptor, [3H]substance P.
Setting [3] is: second value of the cell pKi NK1/NK3, hNK3 receptor, [3H]SR142801.
[4] abbreviates: first value of the cell NK1/NK3, read-out: pKi NK1 (converted).
[5] abbreviates: second value of the cell NK1/NK3, read-out: pKi NK3 (converted).

Read-outs that look alike come from different tables or passages of the source.

Chain of human NK1 receptor (P25103 whole entry): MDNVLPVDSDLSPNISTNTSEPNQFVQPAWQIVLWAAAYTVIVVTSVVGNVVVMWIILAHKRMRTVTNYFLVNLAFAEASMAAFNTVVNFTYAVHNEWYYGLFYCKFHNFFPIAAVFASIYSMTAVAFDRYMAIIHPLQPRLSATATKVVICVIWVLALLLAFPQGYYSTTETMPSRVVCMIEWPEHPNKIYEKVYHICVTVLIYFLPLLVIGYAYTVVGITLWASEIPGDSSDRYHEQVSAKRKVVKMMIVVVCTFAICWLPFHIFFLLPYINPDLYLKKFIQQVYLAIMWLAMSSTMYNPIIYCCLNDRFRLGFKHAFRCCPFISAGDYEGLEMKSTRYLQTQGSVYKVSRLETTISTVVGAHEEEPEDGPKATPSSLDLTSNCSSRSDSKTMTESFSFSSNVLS

Regarding `CCN(CCO)c1cc(-c2ccccc2C)c(N(C)C(=O)C(C)(C)c2cc(C(F)(F)F)cc(C(F)(F)F)c2)cn1` [Example 118, 2-(3,5-Bis-trifluoromethyl-phenyl)-N-{6-[ethyl-(2-hydroxy-ethyl)-amino]-4-o-tolyl-pyridin-3-yl}-N-methyl-isobutyramide], the Ki at human NK1 receptor (setting [2]) was 3.63 nM; in test [1] (setting [3]), 4.57 nM.

As for `CC(C)C[C@@H](CO)Nc1cc(-c2ccccc2Cl)c(N(C)C(=O)C(C)(C)c2cc(C(F)(F)F)cc(C(F)(F)F)c2)cn1` [Example 59, (S)-2-(3,5-Bis-trifluoromethyl-phenyl)-N-[4-(2-chloro-phenyl)-6-(1-hydroxymethyl-3-methyl-butylamino)-pyridin-3-yl]-N-methyl-isobutyramide], the figures for the Ki (on human NK1 receptor (setting [2]); in test [1] (setting [3])) were 3.24 nM and 4.9 nM, respectively.

Take `Cc1cc(F)ccc1-c1cc(NCCO)ncc1N(C)C(=O)C(C)(C)c1cc(Cl)cc(Cl)c1` [Example 21, 2-(3,5-Dichloro-phenyl)-N-[4-(4-fluoro-2-methyl-phenyl)-6-(2-hydroxy-ethylamino)-pyridin-3-yl]-N-methyl-isobutyramide]: the Ki on human NK1 receptor (setting [2]) was 1.29 nM; in test [1] (setting [3]), 8.71 nM.

For the compound `CN(C(=O)C(C)(C)c1cc(C(F)(F)F)cc(C(F)(F)F)c1)c1cnc(N2C[C@@H](O)C[C@H]2CO)cc1-c1ncccc1Cl` [Example 256, (2S,4S)-2-(3,5-Bis-trifluoromethyl-phenyl)-N-[3-chloro-6′-(4-hydroxy-2-hydroxymethyl-pyrrolidin-1-yl)-[2,4′]bipyridinyl-3′-yl]-N-methyl-isobutyramide], the Ki was 2.4 nM at human NK1 receptor (setting [4]) and 20 nM in test [1] (setting [5]).

On to `CN(C(=O)C(C)(C)c1cc(C(F)(F)F)cc(C(F)(F)F)c1)c1cnc(N2C[C@@H](O)C[C@H]2CO)cc1-c1ccc(F)cc1C=O` [Example 239, (2S,4S)-2-(3,5-Bis-trifluoromethyl-phenyl)-N-[4-(4-fluoro-2-formyl-phenyl)-6-(4-hydroxy-2-hydroxymethyl-pyrrolidin-1-yl)-pyridin-3-yl]-N-methyl-isobutyramide], for which the Ki is 1.62 nM at human NK1 receptor (setting [4]) and 1.48 nM in test [1] (setting [5]).

In the case of `CN(C(=O)C(C)(C)c1cc(C(F)(F)F)cc(C(F)(F)F)c1)c1cnc(N2CC[C@H](O)[C@H]2CO)cc1-c1ccc(F)cc1C=O` [Example 273, (2R,3S)-2-(3,5-Bis-trifluoromethyl-phenyl)-N-[4-(4-fluoro-2-formyl-phenyl)-6-(3-hydroxy-2-hydroxymethyl-pyrrolidin-1-yl)-pyridin-3-yl]-N-methyl-isobutyramide], the Ki on human NK1 receptor (setting [4]) is 1.45 nM; in test [1] (setting [5]), 1.55 nM.

For `Cc1cc(F)ccc1-c1cc(N2CC(F)(F)C[C@H]2CO)ncc1N(C)C(=O)C(C)(C)c1cc(C(F)(F)F)cc(C(F)(F)F)c1` [Example 300, (S)-2-(3,5-Bis-trifluoromethyl-phenyl)-N-[6-(4,4-difluoro-2-hydroxymethyl-pyrrolidin-1-yl)-4-(4-fluoro-2-methyl-phenyl)-pyridin-3-yl]-N-methyl-isobutyramide], the results for the Ki (at human NK1 receptor (setting [4]); in test [1] (setting [5])) were 0.955 nM and 0.49 nM, respectively.

Consider `CN(C(=O)C(C)(C)c1cc(C(F)(F)F)cc(C(F)(F)F)c1)c1cnc(N2CCC[C@H]2CO)cc1-c1cccc(Cl)c1Cl` [Example 285, (S)-2-(3,5-Bis-trifluoromethyl-phenyl)-N-[4-(2,3-dichloro-phenyl)-6-(2-hydroxymethyl-pyrrolidin-1-yl)-pyridin-3-yl]-N-methyl-isobutyramide], for which the Ki was 1.58 nM at human NK1 receptor (setting [4]) and 1.86 nM in test [1] (setting [5]).

On to `CN(C(=O)C(C)(C)c1cc(C(F)(F)F)cc(C(F)(F)F)c1)c1cnc(N(CCO)CCO)cc1-c1ccc(Cl)cc1Cl` [Example 86, N-[6-[Bis-(2-hydroxy-ethyl)-amino]-4-(2,4-dichloro-phenyl)-pyridin-3-yl]-2-(3,5-bis-trifluoromethyl-phenyl)-N-methyl-isobutyramide], for which the Ki was 1.66 nM at human NK1 receptor (setting [2]) and 3.55 nM in test [1] (setting [3]).

Consider `CN(C(=O)C(C)(C)c1cc(C(F)(F)F)cc(C(F)(F)F)c1)c1cnc(N2CC[C@H](O)[C@H]2CO)cc1-c1ccccc1C(F)(F)F` [Example 262, (2R,3S)-2-(3,5-Bis-trifluoromethyl-phenyl)-N-[6-(3-hydroxy-2-hydroxymethyl-pyrrolidin-1-yl)-4-(2-trifluoromethyl-phenyl)-pyridin-3-yl]-N-methyl-isobutyramide], for which the Ki at human NK1 receptor (setting [4]) was 7.94 nM; in test [1] (setting [5]) it was 9.77 nM.

In the case of `CN(C(=O)C(C)(C)c1cc(C(F)(F)F)cc(C(F)(F)F)c1)c1cnc(N2CC[C@H](O)[C@H]2CO)cc1-c1ccc(Cl)cc1Cl` [Example 137, (2R,3S)-2-(3,5-Bis-trifluoromethyl-phenyl)-N-[4-(2,4-dichloro-phenyl)-6-(3-hydroxy-2-hydroxymethyl-pyrrolidin-1-yl)-pyridin-3-yl]-N-methyl-isobutyramide], the Ki at human NK1 receptor (setting [2]) was 2.82 nM; in test [1] (setting [3]), 1.35 nM.

Regarding `Cc1cc(F)ccc1-c1cc(N(CCO)CCCO)ncc1N(C)C(=O)C(C)(C)c1cc(C(F)(F)F)cc(C(F)(F)F)c1` [Example 85, 2-(3,5-Bis-trifluoromethyl-phenyl)-N-{4-(4-fluoro-2-methyl-phenyl)-6-[(2-hydroxy-ethyl)-(3-hydroxy-propyl)-amino]-pyridin-3-yl}-N-methyl-isobutyramide], the values for the Ki (on human NK1 receptor (setting [2]); in test [1] (setting [3])) were 2.34 nM and 2.29 nM, respectively.

As to `Cc1cc(F)ccc1-c1cc(N2C[C@@H](O)C[C@H]2CO)ncc1N(C)C(=O)C(C)(C)c1cc(C(F)(F)F)cc(C(F)(F)F)c1` [Example 238, (2S,4S)-2-(3,5-Bis-trifluoromethyl-phenyl)-N-[4-(4-fluoro-2-methyl-phenyl)-6-(4-hydroxy-2-hydroxymethyl-pyrrolidin-1-yl)-pyridin-3-yl]-N-methyl-isobutyramide], the figures for the Ki (at human NK1 receptor (setting [4]); in test [1] (setting [5])) were 1.23 nM and 1.02 nM, respectively.

Consider `Cc1c(F)cccc1-c1cc(N2CCC[C@H]2CO)ncc1N(C)C(=O)C(C)(C)c1cc(C(F)(F)F)cc(C(F)(F)F)c1` [Example 167, (S)-2-(3,5-Bis-trifluoromethyl-phenyl)-N-[4-(3-fluoro-2-methyl-phenyl)-6-(2-hydroxymethyl-pyrrolidin-1-yl)-pyridin-3-yl]-N-methyl-isobutyramide], for which the figures for the Ki (at human NK1 receptor (setting [2]); in test [1] (setting [3])) were 4.47 nM and 0.977 nM, respectively.

As to `Cc1cc(C)cc(C(C)(C)C(=O)N(C)c2cnc(N3CCC[C@H]3CO)cc2-c2ccc(F)cc2C)c1` [Example 32, (S)-(3,5-Dimethyl-phenyl)-N-[4-(4-fluoro-2-methyl-phenyl)-6-(2-hydroxymethyl-pyrrolidin-1-yl)-pyridin-3-yl]-N-methyl-isobutyramide], the “pKi NK1” value at human NK1 receptor (setting [2]) was 8.51. Also, the “pKi NK3” value in test [1] (setting [3]) was 8.52.

Regarding `Cc1ccc(F)cc1-c1cc(N2CCC[C@H]2CO)ncc1N(C)C(=O)C(C)(C)c1cc(C(F)(F)F)cc(C(F)(F)F)c1` [Example 166, (S)-2-(3,5-Bis-trifluoromethyl-phenyl)-N-[4-(5-fluoro-2-methyl-phenyl)-6-(2-hydroxymethyl-pyrrolidin-1-yl)-pyridin-3-yl]-N-methyl-isobutyramide], the Ki at human NK1 receptor (setting [2]) was 3.8 nM; in test [1] (setting [3]), 1.2 nM.

Take `CN(C(=O)C(C)(C)c1cc(C(F)(F)F)cc(C(F)(F)F)c1)c1cnc(N2CC(O)C2)cc1-c1ccccc1Cl` [Example 98, 2-(3,5-Bis-trifluoromethyl-phenyl)-N-[4-(2-chloro-phenyl)-6-(3-hydroxy-azetidin-1-yl)-pyridin-3-yl]-N-methyl-isobutyramide]: the figures for the Ki (at human NK1 receptor (setting [2]); in test [1] (setting [3])) were 0.692 nM and 3.47 nM, respectively.
